IC50 data for five compounds are collected here from ChEMBL document CHEMBL4673349, “Trichodestruxins A-D: Cytotoxic Cyclodepsipeptides from the Endophytic Fungus Trichoderma harzianum” (J Nat Prod, 2020).

pIC50: −log10 of the molar value. Structures can show the parent of a compound that is named as a salt. Where only a bound is given, the exact number is not on record here.

Holding throughout (format): functional, cell-based
The test system of one assay is P388. Briefly: Cytotoxicity against mouse p388 cells assessed as reduction in cell viability after 72 hrs by MTT assay. The conditions noted are these: P388, 72 h. A general note: Tetrazolium assays rely on reduction of a dye to a coloured formazan, in cell work by metabolically active cells.
Another assay concerns HT-29. Briefly: Cytotoxicity against human HT-29 cells assessed as reduction in cell viability after 72 hrs by MTT assay. The conditions noted are these: HT-29, 72 h.
A further assay deals with A549. The experiment in a line: Cytotoxicity against human A549 cells assessed as reduction in cell viability after 72 hrs by MTT assay. To be noted: A549, 72 h.

A word on the pIC50: it is the IC50 on a negative log10 scale, so that one unit is a factor of ten. For `C=CC[C@H]1OC(=O)CCNC(=O)[C@H](C)N(C)C(=O)[C@H](C(C)C)N(C)C(=O)[C@H](C(C)C)NC(=O)[C@@H]2[C@@H](C)CCN2C1=O`, the pIC50 in the assay on P388 is 4.77; in the assay on HT-29, 5.11; with A549 it was 4.81.

Take `COc1cccc2c1C(=O)c1c(O)c3c(c(O)c1C2=O)C[C@@](O)(C(=O)CO)C[C@@H]3O[C@H]1C[C@H](N)[C@H](O)[C@H](C)O1` [DOXORUBICIN HYDROCHLORIDE]: the pIC50 in the assay with P388 is 6.52; in the assay on HT-29, 5.74; in the assay with A549, 5.64.

Turning to `CC(C)C[C@H]1OC(=O)CCNC(=O)[C@H](C)N(C)C(=O)[C@H](C(C)C)N(C)C(=O)[C@H](C(C)C)NC(=O)[C@@H]2[C@@H](C)CCN2C1=O`, the pIC50 is 5.08 with P388, 5.47 with HT-29 and 4.99 in the assay with A549.

In the case of `CC(C)C[C@H]1OC(=O)CCNC(=O)[C@H](C)NC(=O)[C@H](C(C)C)N(C)C(=O)[C@H](C(C)C)NC(=O)[C@@H]2[C@@H](C)CCN2C1=O`, the pIC50 with P388 was below 4.70; in the assay on HT-29, below 4.70; in the assay on A549, 4.76.

In the case of `CC(C)[C@@H]1NC(=O)[C@@H]2[C@@H](C)CCN2C(=O)[C@@H](C[C@@H](O)CO)OC(=O)CCNC(=O)[C@H](C)N(C)C(=O)[C@H](C(C)C)N(C)C1=O`, the pIC50 is 4.72 with P388, 4.78 in the assay with HT-29 and 5.06 with A549.
